“And” between values parts separate entries of the source, which are not always exact repeats. Identical values can stand only once. Results filed as inconclusive are left out.
Tested on: BDF1 mice, M5076 sarcoma s.c., survival/tumor T/C
Experiment: NCI In Vivo Anticancer Drug Screen. Data for tumor model Sarcoma M5076 (subcutaneous) in B6D2F1 (BDF1) mice
Method: The antitumor activity of compounds was measured in mice bearing transplantable tumors. Survival or tumor size were measured and the results are expressed as the measurement made in the treated group (T) divided by the measurement made in the vehicle treated control group (C). The tumor model used in this assay is Sarcoma M5076 (subcutaneous) in B6D2F1 (BDF1) mice

[1] = endpoint: mean tumor weight, dose: 12.5 mg/kg/injection, schedule: Q02DX011 (ip), vehicle: saline, higher = larger tumour
[2] = endpoint: mean tumor weight, dose: 25.0 mg/kg/injection, schedule: Q02DX011 (ip), vehicle: saline, higher = larger tumour
[3] = endpoint: mean tumor weight, dose: 50.0 mg/kg/injection, schedule: Q02DX011 (ip), vehicle: saline, higher = larger tumour
[4] = endpoint: median tumor weight (est.), dose: 12.5 mg/kg/injection, schedule: Q02DX011 (ip), vehicle: saline, higher = larger tumour
[5] = endpoint: median tumor weight (est.), dose: 25.0 mg/kg/injection, schedule: Q02DX011 (ip), vehicle: saline, higher = larger tumour
[6] = endpoint: median tumor weight (est.), dose: 50.0 mg/kg/injection, schedule: Q02DX011 (ip), vehicle: saline, higher = larger tumour
[7] = endpoint: median survival time, dose: 50.0 mg/kg/injection, schedule: Q01DX009 (ip), vehicle: saline with Tween-80, higher = longer survival
[8] = endpoint: median survival time, dose: 100.0 mg/kg/injection, schedule: Q01DX009 (ip), vehicle: saline with Tween-80, higher = longer survival
[9] = endpoint: median survival time, dose: 200.0 mg/kg/injection, schedule: Q01DX009 (ip), vehicle: saline with Tween-80, higher = longer survival
[10] = endpoint: median tumor weight (est.), dose: 50.0 mg/kg/injection, schedule: Q01DX009 (ip), vehicle: saline with Tween-80, higher = larger tumour
[11] = endpoint: median tumor weight (est.), dose: 100.0 mg/kg/injection, schedule: Q01DX009 (ip), vehicle: saline with Tween-80, higher = larger tumour
[12] = endpoint: median tumor weight (est.), dose: 200.0 mg/kg/injection, schedule: Q01DX009 (ip), vehicle: saline with Tween-80, higher = larger tumour

SMILES: Cc1c2ccncc2c(C)c2c1[nH]c1ccccc12
- T/C [1]: 100 % of control
- T/C (endpoint: mean tumor weight, dose: 12.5 mg/kg/injection, schedule: Q02DX011 (ip), vehicle: water, higher = larger tumour): 55 % of control
- T/C [2]: 65 % of control
- T/C [3]: 36 % of control
- T/C [4]: 355 % of control
- T/C (endpoint: median tumor weight (est.), dose: 12.5 mg/kg/injection, schedule: Q02DX011 (ip), vehicle: water, higher = larger tumour): 47 % of control
- T/C [5]: 314 % of control
- T/C [6]: 98 % of control

SMILES: CCCCN1C(=O)/C(=C/c2ccccc2OC)SC1=S
- T/C [7]: 103 % of control
- T/C [8]: 107 % of control
- T/C [9]: 93 % of control
- T/C [10]: 98 % of control
- T/C [11]: 97 % of control
- T/C [12]: 107 % of control

SMILES: O=C1N=C(Oc2ccccc2)SC1=O
- T/C (endpoint: median survival time, dose: 50.0 mg/kg/injection, schedule: Q04DX003 (ip), vehicle: saline with Tween-80, higher = longer survival): 106 % of control

SMILES: COC(=O)C(Cc1ccccc1)NS(=O)(=O)c1ccc(C)cc1 (stereo not drawn)
- T/C [7]: 98 % of control
- T/C [8]: 106 % of control
- T/C [9]: 97 % of control
- T/C [11]: 118 % of control

SMILES: CC(=O)[C@H]1CC[C@H]2[C@@H]3C[C@H](C)C4=CC(=O)CC[C@]4(C)[C@H]3C(=O)C[C@]12C
- T/C (endpoint: mean tumor weight, dose: 100.0 mg/kg/injection, schedule: Q02DX011 (ip), vehicle: Klucel (hydroxypropylcellulose) (HPC), higher = larger tumour): 51 % of control
- T/C (endpoint: mean tumor weight, dose: 200.0 mg/kg/injection, schedule: Q02DX011 (ip), vehicle: Klucel (hydroxypropylcellulose) (HPC), higher = larger tumour): 74 % of control

SMILES: C[CH2][Ge]1([CH2]C)[CH2]CC2(CCN(CCCN(C)C)C2)C[CH2]1
- T/C [1]: 110 % of control
- T/C [2]: 79 % of control and 91 % of control
- T/C [3]: 107 % of control and 82 % of control
- T/C [4]: 94 % of control
- T/C [5]: 74 % of control
- T/C [6]: 74 % of control

SMILES: O=CC(NC(=O)N(CCCl)N=O)C(O)C(O)C(O)CO (stereo not drawn)
- T/C (endpoint: mean tumor weight, dose: 0.75 mg/kg/injection, schedule: Q02DX011 (ip), vehicle: saline, higher = larger tumour): 100 % of control
- T/C (endpoint: mean tumor weight, dose: 1.5 mg/kg/injection, schedule: Q02DX011 (ip), vehicle: saline, higher = larger tumour): 33 % of control
- T/C (endpoint: mean tumor weight, dose: 3.0 mg/kg/injection, schedule: Q02DX011 (ip), vehicle: saline, higher = larger tumour): 6 % of control
- T/C (endpoint: median survival time, dose: 4.32 mg/kg/injection, schedule: Q04DX003 (ip), vehicle: saline, higher = longer survival): 182 % of control
- T/C (endpoint: median survival time, dose: 6.17 mg/kg/injection, schedule: Q04DX003 (ip), vehicle: saline, higher = longer survival): 152 % of control and 153 % of control
- T/C (endpoint: median survival time, dose: 6.86 mg/kg/injection, schedule: Q01DX001 (ip), vehicle: saline, higher = longer survival): 109 % of control
- T/C (endpoint: median survival time, dose: 8.82 mg/kg/injection, schedule: Q04DX003 (ip), vehicle: saline, higher = longer survival): 179 % of control and 181 % of control
- T/C (endpoint: median survival time, dose: 9.8 mg/kg/injection, schedule: Q01DX001 (ip), vehicle: saline, higher = longer survival): 111 % of control and 113 % of control
- T/C (endpoint: median survival time, dose: 12.6 mg/kg/injection, schedule: Q04DX003 (ip), vehicle: saline, higher = longer survival): 186 % of control and 188 % of control
- T/C (endpoint: median survival time, dose: 18.0 mg/kg/injection, schedule: Q04DX003 (ip), vehicle: saline, higher = longer survival): 205 % of control
- T/C (endpoint: median survival time, dose: 20.0 mg/kg/injection, schedule: Q01DX001 (ip), vehicle: saline, higher = longer survival): 155 % of control and 156 % of control
- T/C (endpoint: median tumor weight (est.), dose: 0.75 mg/kg/injection, schedule: Q02DX011 (ip), vehicle: saline, higher = larger tumour): 118 % of control
- T/C (endpoint: median tumor weight (est.), dose: 1.5 mg/kg/injection, schedule: Q02DX011 (ip), vehicle: saline, higher = larger tumour): 5 % of control
- T/C (endpoint: median tumor weight (est.), dose: 3.0 mg/kg/injection, schedule: Q02DX011 (ip), vehicle: saline, higher = larger tumour): 4 % of control

SMILES: O=C(O)c1ccc(C(=O)O)c(C(=O)O)c1.[NH-]C1CCCCC1[NH-].[Pt+2]
- T/C (endpoint: median survival time, dose: 0.8 mg/kg/injection, schedule: Q01DX009 (ip), vehicle: sodium bicarbonate, higher = longer survival): 101 % of control
- T/C (endpoint: median survival time, dose: 1.5 mg/kg/injection, schedule: Q01DX009 (ip), vehicle: sodium bicarbonate, higher = longer survival): 104 % of control
- T/C (endpoint: median survival time, dose: 3.0 mg/kg/injection, schedule: Q01DX009 (ip), vehicle: sodium bicarbonate, higher = longer survival): 108 % of control
- T/C (endpoint: median survival time, dose: 6.0 mg/kg/injection, schedule: Q01DX009 (ip), vehicle: sodium bicarbonate, higher = longer survival): 112 % of control
- T/C (endpoint: median survival time, dose: 8.64 mg/kg/injection, schedule: Q04DX005 (ip), vehicle: sodium bicarbonate, higher = longer survival): 176 % of control
- T/C (endpoint: median survival time, dose: 14.4 mg/kg/injection, schedule: Q04DX005 (ip), vehicle: sodium bicarbonate, higher = longer survival): 216 % of control
- T/C (endpoint: median tumor weight (est.), dose: 3.11 mg/kg/injection, schedule: Q04DX005 (ip), vehicle: sodium bicarbonate, higher = larger tumour): 14 % of control
- T/C (endpoint: median tumor weight (est.), dose: 5.18 mg/kg/injection, schedule: Q04DX005 (ip), vehicle: sodium bicarbonate, higher = larger tumour): 18 % of control

SMILES: OC(CBr)C(O)C(O)C(O)CBr (stereo not drawn)
- T/C (endpoint: mean tumor weight, dose: 37.5 mg/kg/injection, schedule: Q02DX011 (ip), vehicle: Klucel (hydroxypropylcellulose) (HPC), higher = larger tumour): 66 % of control
- T/C (endpoint: mean tumor weight, dose: 75.0 mg/kg/injection, schedule: Q02DX011 (ip), vehicle: Klucel (hydroxypropylcellulose) (HPC), higher = larger tumour): 63 % of control
- T/C (endpoint: mean tumor weight, dose: 150.0 mg/kg/injection, schedule: Q02DX011 (ip), vehicle: Klucel (hydroxypropylcellulose) (HPC), higher = larger tumour): 52 % of control
- T/C (endpoint: median survival time, dose: 30.0 mg/kg/injection, schedule: Q04DX009 (ip), vehicle: saline with Tween-80, higher = longer survival): 108 % of control
- T/C (endpoint: median survival time, dose: 60.0 mg/kg/injection, schedule: Q02DX033 (ip), vehicle: saline with Tween-80, higher = longer survival): 112 % of control
- T/C (endpoint: median survival time, dose: 60.0 mg/kg/injection, schedule: Q04DX009 (ip), vehicle: saline with Tween-80, higher = longer survival): 108 % of control
- T/C (endpoint: median survival time, dose: 120.0 mg/kg/injection, schedule: Q02DX033 (ip), vehicle: saline with Tween-80, higher = longer survival): 158 % of control
- T/C (endpoint: median survival time, dose: 120.0 mg/kg/injection, schedule: Q04DX009 (ip), vehicle: saline with Tween-80, higher = longer survival): 112 % of control
- T/C (endpoint: median tumor weight (est.), dose: 37.5 mg/kg/injection, schedule: Q02DX011 (ip), vehicle: Klucel (hydroxypropylcellulose) (HPC), higher = larger tumour): 75 % of control
- T/C (endpoint: median tumor weight (est.), dose: 75.0 mg/kg/injection, schedule: Q02DX011 (ip), vehicle: Klucel (hydroxypropylcellulose) (HPC), higher = larger tumour): 90 % of control
- T/C (endpoint: median tumor weight (est.), dose: 150.0 mg/kg/injection, schedule: Q02DX011 (ip), vehicle: Klucel (hydroxypropylcellulose) (HPC), higher = larger tumour): 72 % of control

SMILES: CCCNC(=O)ON1C(=O)C2C3C=CC(C3)C2C1=O (stereo not drawn)
- T/C (endpoint: median survival time, dose: 3.12 mg/kg/injection, schedule: Q01DX009 (ip), vehicle: saline with Tween-80, higher = longer survival): 98 % of control
- T/C (endpoint: median survival time, dose: 6.25 mg/kg/injection, schedule: Q01DX009 (ip), vehicle: saline with Tween-80, higher = longer survival): 95 % of control
- T/C (endpoint: median survival time, dose: 12.5 mg/kg/injection, schedule: Q01DX009 (ip), vehicle: saline with Tween-80, higher = longer survival): 103 % of control
- T/C (endpoint: median tumor weight (est.), dose: 3.12 mg/kg/injection, schedule: Q01DX009 (ip), vehicle: saline with Tween-80, higher = larger tumour): 93 % of control
- T/C (endpoint: median tumor weight (est.), dose: 6.25 mg/kg/injection, schedule: Q01DX009 (ip), vehicle: saline with Tween-80, higher = larger tumour): 107 % of control

SMILES: O=NN(CCCl)C(=O)NC1CCCCC1
- T/C (endpoint: median survival time, dose: 2.0 mg/kg/injection, schedule: Q04DX006 (ip), vehicle: saline with Tween-80, higher = longer survival): 117 % of control
- T/C (endpoint: median survival time, dose: 3.0 mg/kg/injection, schedule: Q01DX009 (ip), vehicle: Klucel (hydroxypropylcellulose) (HPC), higher = longer survival): 168 % of control
- T/C (endpoint: median survival time, dose: 4.0 mg/kg/injection, schedule: Q02DX033 (ip), vehicle: saline with Tween-80, higher = longer survival): 250 % of control
- T/C (endpoint: median survival time, dose: 4.0 mg/kg/injection, schedule: Q04DX006 (ip), vehicle: saline with Tween-80, higher = longer survival): 120 % of control
- T/C (endpoint: median survival time, dose: 6.0 mg/kg/injection, schedule: Q01DX009 (ip), vehicle: Klucel (hydroxypropylcellulose) (HPC), higher = longer survival): 215 % of control
- T/C (endpoint: median survival time, dose: 8.0 mg/kg/injection, schedule: Q02DX033 (ip), vehicle: saline with Tween-80, higher = longer survival): 255 % of control
- T/C (endpoint: median survival time, dose: 8.0 mg/kg/injection, schedule: Q04DX006 (ip), vehicle: saline with Tween-80, higher = longer survival): 183 % of control
- T/C (endpoint: median survival time, dose: 12.0 mg/kg/injection, schedule: Q01DX009 (ip), vehicle: Klucel (hydroxypropylcellulose) (HPC), higher = longer survival): 215 % of control
- T/C (endpoint: median survival time, dose: 16.0 mg/kg/injection, schedule: Q04DX006 (ip), vehicle: saline with Tween-80, higher = longer survival): 241 % of control
- T/C (endpoint: median tumor weight (est.), dose: 1.5 mg/kg/injection, schedule: Q01DX009 (ip), vehicle: Klucel (hydroxypropylcellulose) (HPC), higher = larger tumour): 10 % of control

SMILES: CC1(C)COCN1COCCOCN1COCC1(C)C
- T/C (endpoint: median survival time, dose: 50.0 mg/kg/injection, schedule: Q04DX003 (ip), vehicle: saline, higher = longer survival): 103 % of control
- T/C (endpoint: median survival time, dose: 100.0 mg/kg/injection, schedule: Q04DX003 (ip), vehicle: saline, higher = longer survival): 95 % of control

SMILES: O=C1Nc2cnc(Cl)nc2Nc2ccccc21
- T/C [7]: 97 % of control
- T/C [8]: 94 % of control
- T/C [9]: 95 % of control
- T/C [10]: 90 % of control
- T/C [11]: 75 % of control
- T/C [12]: 86 % of control

— PubChem BioAssay AID288 (DTP/NCI, 2004)
